Measurements reported in ChEMBL document CHEMBL1129139, “Synthesis and activity of staurosporine analogs with a lactone functionality” (Bioorg Med Chem Lett, 1996).

Columns and labels:
Cavia porcellus [1] = species on record: Cavia porcellus; test: Inhibitory effect of compound was measured for arterial contraction in guinea pig; type: functional, organism-based
Cavia porcellus [2] = species on record: Cavia porcellus; test: Inhibitory effect of compound was measured for platelet aggregation in guinea pig blood; type: functional, organism-based

CN[C@@H]1CC2O[C@@](C)([C@@H]1OC)n1c3ccccc3c3c(CO)c(CO)c4c5ccccc5n2c4c31
IC50 (Cavia porcellus [1]): 30 µM
IC50 (Cavia porcellus [2]): 6.8 µM

CO[C@@H]1[C@H](N(C)C)CC2O[C@]1(C)n1c3ccccc3c3c4c(c5c6ccccc6n2c5c31)C(=O)OC4
IC50 (Cavia porcellus [1]): > 10 µM
IC50 (Cavia porcellus [2]): 5.4 µM

CN[C@@H]1CC2O[C@@](C)([C@@H]1OC)n1c3ccccc3c3c4c(c5c6ccccc6n2c5c31)C(=O)OC4
IC50 (Cavia porcellus [1]): > 30 µM
IC50 (Cavia porcellus [2]): 6.8 µM

CN[C@@H]1CC2O[C@@](C)([C@@H]1OC)n1c3ccc(O)cc3c3c4c(c5c6cc(O)ccc6n2c5c31)C(=O)OC4
IC50 (Cavia porcellus [1]): 3 µM
IC50 (Cavia porcellus [2]): 0.4 µM
